From patent US6861542B1, “Dimer amidopropyl dimethyl quaternary compounds” (SurfaTech Corporation, priority 2004, dated 2005)

Columns and labels:
[1] = Anionic compatibility test (titration of 10% sodium lauryl sulfate with 10% solids quat solution); assay type: physicochemical; conditions: 10% solids solution added to 100 ml of 10% sodium lauryl sulfate; for number of ml of solution A at the first point haze or precipitate was noted (end point): test stopped at 100 ml (fully compatible)
Experimental: The compounds evaluated were diluted to 10% solids with DI water before evaluation.
A solution of 10% b weight sodium lauryl sulfate was prepared. The sodium lauryl sulfate was obtained from Colonial Chemical in South Pittsburgh Tennessee.
Anionic Compatibility Test
100 ml of solution B was added to a 400 ml beaker. Solution A was slowly added until either a precipitate or haziness was noted. The number of ml of solution was recorded at the first point the haze of precipitate was noted. That point was noted as the end point. The higher the volume used to the end point the better the compatibility. The test is stopped at 100 ml at which point the product is considered fully compatible.

[2] = test system: hair; assay: Half head conditioning study in commercial baby shampoo; assay type: in vivo; design: key: 1: no conditioning; 2: minimal conditioning; 3: measurable conditioning; 4: good conditioning; 5: excellent conditioning; conditions: 0.5% active by weight in commercial baby shampoo, 10 people, average rounded to nearest whole number
Experimental: The baby shampoo compounds were evaluated on 10 people with half head studies. The values reported were the average rounded to the nearest whole number. […] The scale used to evaluate was: [table]

CCCCCCCCCCCCCCCCCC[N+](C)(C)Cc1ccccc1.[Cl-] [Stearyl dimethyl denzalkonium chloride, reference compound]
anionic compatibility rating [1]: Very Incompatible | number of ml of solution A at the first point haze or precipitate was noted (end point) [1]: 1.0 mL

CCCCCCCCCCCCCCCCCC(=O)NCCCN(C)C.Cl [Stearylamidopropyl dimethyl ammonium chloride, reference compound]
Conditioning Value [2]: 1 | anionic compatibility rating [1]: mildly compatible | number of ml of solution A at the first point haze or precipitate was noted (end point) [1]: 20.0 mL

Cetyl trimethyl benzyl ammonium chloride [reference compound]
anionic compatibility rating [1]: Very Incompatible | number of ml of solution A at the first point haze or precipitate was noted (end point) [1]: 0.5 mL

Dimer benzyl quat [Example 5]
Conditioning Value [2]: 5 | anionic compatibility rating [1]: Very | number of ml of solution A at the first point haze or precipitate was noted (end point) [1]: 88.2 mL

Dimer glyceryl quat [Example 3]
Conditioning Value [2]: 4 | anionic compatibility rating [1]: Fully | number of ml of solution A at the first point haze or precipitate was noted (end point) [1]: 100.0 mL

Dimer tri-methyl quat [Example 7]
Conditioning Value [2]: 4 | anionic compatibility rating [1]: Compatible | number of ml of solution A at the first point haze or precipitate was noted (end point) [1]: 58.9 mL

Hydrogenated dimer benzyl quat [Example 6]
Conditioning Value [2]: 5

Hydrogenated dimer glyceryl quat [Example 4]
Conditioning Value [2]: 4 | anionic compatibility rating [1]: Fully | number of ml of solution A at the first point haze or precipitate was noted (end point) [1]: 100.0 mL

Hydrogenated dimer tri-methyl [Example 8]
Conditioning Value [2]: 4 | anionic compatibility rating [1]: Compatible | number of ml of solution A at the first point haze or precipitate was noted (end point) [1]: 59.6 mL
